Test results: PMC7113773 (Antiviral Research, 2014)
Structures can show the parent of a compound that is named as a salt. Where two headings read alike, the source gives them in different places.

Key:
in vitro = details: dog
[1] = test system: A/Puerto Rico/8/34 (H1N1; PR8); assay: organism not typed; format: cell-based, influenza A virus; details: for EC50: read-out: EC50 for influenza virus A/Puerto Rico/8/34
A/Hong Kong/8/68 (H3N2) = assay: organism not typed; format: cell-based, influenza A virus; details: for EC50: read-out: EC50 for influenza virus A/Hong Kong/8/68
[2] = test system: pore-forming glycoprotein perforin; details: previous study, ref Lena et al., 2008; cited from earlier work
PR8 virus [3] = format: cell-based, influenza A virus
CoxB = assay: MTT-based antiviral assay, CoxB in HeLa cells; format: cell-based, Coxsackie B virus; details: maximum concentration of 100 μM, data not shown
HIV = assay: MTT-based antiviral assay, HIV in MT-4 cells; format: cell-based, human immunodeficiency virus; details: maximum concentration of 100 μM, data not shown
B/Lee/40 = format: cell-based, influenza B virus; details: for EC50: read-out: EC50 for influenza virus B/Lee/40
HSV = assay: MTT-based antiviral assay, HSV in Vero cells; format: cell-based, herpes simplex virus; details: maximum concentration of 100 μM, data not shown
PR8 virus [4] = format: cell-based, influenza A virus; remark: listed apart in the source
FECV = assay: MTT-based antiviral assay, FECV in CrFK cells; format: cell-based, feline coronavirus; details: maximum concentration of 100 μM, data not shown
[5] = test system: PR8 virus NP and HA protein; format: cell-based, influenza A virus; details: 11, 33 and 100 μM, 24 h at 35 °C
MDCK cells = details: for CC50: read-out: CC50 for MDCK cells, mock-infected MDCK cells, day 3, MTT
[6] = test system: influenza A/H1N1, A/H3N2 and B viruses; assay: CPE reduction assay / screen, stated for the three influenza viruses together; format: cell-based; details: even at 100 μM

SMILES | CC50 (in vitro) [µM] | EC50 ([1]; MDCK, 72 h) [µM] | EC50 (A/Hong Kong/8/68 (H3N2); MDCK, 72 h) [µM] | further results
NC12CC3CC(CC(C3)C1)C2 [Amantadine hydrochloride, reference compound] | > 100 | > 100 | 2.8 ± 1.7 | 
Cc1cc2c(c(=O)[nH]1)C(=O)O/C2=C\c1c[nH]c2ccc(F)cc12 [Compound 15b, (Z)-1-((5-Fluoro-1H-indol-3-yl)methylene)-6-methylfuro[3,4-c]pyridine-3,4(1H,5 H)-dione] | > 900 | 22.5 ± 10.8 | 26.8 ± 16.2 | 
Cc1cc2c(c(=S)n1C)C(=O)O/C2=C\c1cc2cc(F)ccc2[nH]1 [Compound 15c, (Z)-1-((5-Fluoro-1H-indol-2-yl)methylene)-5,6-dimethyl-4-thioxo-4,5-dihydrofuro[3,4-c]pyridin-3(1H)-one] | > 900 | > 100 | > 100 | 
O=C1O/C(=C\c2c[nH]c3ccc(F)cc23)c2cc(-c3ccccc3)[nH]c(=S)c21 [Compound 15d, (Z)-1-((5-Fluoro-1H-indol-3-yl)methylene)-6-phenyl-4-thioxo-4,5-dihydrofuro[3,4-c]pyridin-3(1H)-one] | > 900 | 63.8 ± 25.2 | 32.5 ± 13.3 | 
Cc1cc2c(c(=S)[nH]1)C(=O)O/C2=C\c1c[nH]c2ccccc12 [Compound 15e, (Z)-1-((1H-Indol-3-yl)methylene)-6-methyl-4-thioxo-4,5-dihydrofuro[3,4-c]pyridi n-3(1H)-one] | > 900 | > 100 | > 100 | inhibitory effect on cell lysis induced by perforin [2]: inactive
Cc1cc2c(c(=S)[nH]1)C(=O)O/C2=C\c1csc2ccccc12 [Compound 15f, (Z)-1-(Benzo[b]thiophen-3-ylmethylene)-6-methyl-4-thioxo-4,5-dihydrofuro[3,4-c]pyridin-3(1H)-one] | > 900 | 26.1 ± 6 | 28.8 ± 6.2 | inhibitory effect on cell lysis induced by perforin [2]: active
Cc1cc2c(c(=S)[nH]1)C(=O)O/C2=C\c1cc2ccccc2s1 [Compound 15g, (Z)-1-(Benzo[b]thiophen-2-ylmethylene)-6-methyl-4-thioxo-4,5-dihydrofuro[3,4-c]pyridin-3(1H)-one] | > 900 | 16.1 | 10.5 | vRNA levels in culture supernatants (PR8 virus [3]): significantly inhibited; antiviral activity against CoxB (CoxB): no antiviral activity was detected; antiviral activity against HIV (HIV): no antiviral activity was detected; S.I. (selectivity index, CC50/EC50), A/Puerto Rico/8/34 [1]: 16.1 ± 6.0 (>55.9); S.I. (selectivity index, CC50/EC50), B/Lee/40 (B/Lee/40): 18.4 ± 12.8 (>48.9); inhibitory effect on cell lysis induced by perforin [2]: active; antiviral activity against HSV (HSV): no antiviral activity was detected; plaque titer (infectious viral titers) (PR8 virus [4]): significantly inhibited; S.I. (selectivity index, CC50/EC50), A/Hong Kong/8/68 (A/Hong Kong/8/68 (H3N2)): 10.5 ± 5.0 (>85.7); antiviral activity against FECV (FECV): no antiviral activity was detected; viral protein level (NP, HA) in cells [5]: Reduction of the influenza viral protein level
Cc1cc2c(c(=S)[nH]1)C(=O)O/C2=C\c1sc2ccccc2c1C [Compound 15h, (Z)-6-Methyl-1-((3-methylbenzo[b]thiophen-2-yl)methylene)-4-thioxo-4,5-dihydrofuro[3,4-c]pyridin-3(1H)-one] | > 900 | > 100 | > 100 | 
Cc1c(/C=C2\OC(=O)c3c2cc(C)n(C)c3=S)sc2ccccc12 [Compound 15i, (Z)-5,6-Dimethyl-1-((3-methylbenzo[b]thiophen-2-yl)methylene)-4-thioxo-4,5-dihydrofuro[3,4-c]pyridin-3(1H)-one] | > 900 | > 100 | > 100 | 
Cc1cc2c(c(=S)[nH]1)C(=O)O/C2=C\c1ccsc1 [Compound 15j, (Z)-6-Methyl-1-(thiophen-3-ylmethylene)-4-thioxo-4,5-dihydrofuro[3,4-c]pyridi n-3(1H)-one] | > 900 | 5 | 6.2 | S.I. (selectivity index, CC50/EC50), A/Puerto Rico/8/34 [1]: 5.0 ± 1.0 (>180.0); S.I. (selectivity index, CC50/EC50), B/Lee/40 (B/Lee/40): 5.9 ± 2.0 (>152.5); toxicity to MDCK cells (MDCK cells; at 900 μM, uninfected MDCK cells): no toxicity; inhibitory effect on cell lysis induced by perforin [2]: none; S.I. (selectivity index, CC50/EC50), A/Hong Kong/8/68 (A/Hong Kong/8/68 (H3N2)): 6.2 ± 3.1 (>145.2); viral protein level (NP, HA) in cells [5]: Reduction of the influenza viral protein level
Cc1cc2c(c(=O)[nH]1)C(=O)O/C2=C\c1ccsc1 [Compound 15k, (Z)-6-Methyl-1-(thiophen-3-ylmethylene)furo[3,4-c]pyridine-3,4(1H,5H)-dione] | 19.8 ± 8.2 | > 19.8 | > 19.8 | 
O=C1O/C(=C\c2ccsc2)c2cc(-c3ccccc3)[nH]c(=S)c21 [Compound 15l, (Z)-6-Penyl-1-(thiophen-3-ylmethylene)-4-thioxo-4,5-dihydrofuro[3,4-c]pyridin-3(1H)-one] |  |  |  | EC50 [1]: > 100 µM; EC50 (B/Lee/40): > 100 µM; CC50 (MDCK cells): > 900 µM; EC50 (A/Hong Kong/8/68 (H3N2)): 27.1 ± 5.8 µM
Cc1cc2c(c(=S)[nH]1)C(=O)O/C2=C\c1ccoc1 [Compound 15m, (Z)-1-(Fran-3-ylmethylene)-6-methyl-4-thioxo-4,5-dihydrofuro[3,4-c]pyridin-3(1H)-one] |  |  |  | EC50 [1]: 21.4 ± 12.6 µM; EC50 (B/Lee/40): 16.3 ± 8.5 µM; CC50 (MDCK cells): > 900 µM; inhibitory effect on cell lysis induced by perforin [2]: none; EC50 (A/Hong Kong/8/68 (H3N2)): 34.1 ± 10 µM
Cc1cc2c(c(=O)[nH]1)C(=O)O/C2=C\c1ccoc1 [Compound 15n, (Z)-1-(Furan-3-ylmethylene)-6-methylfuro[3,4-c]pyridine-3,4(1H,5H)-dione] | 61.9 ± 10.7 | > 61.9 | > 61.9 | 
Cc1cc2c(c(=S)[nH]1)C(=O)O/C2=C\c1c[nH]cn1 [Compound 15o, (Z)-1-((1H-imidazol-4-yl)methylene)-6-methyl-4-thioxo-4,5-dihydrofuro[3,4-c]pyridin-3(1H)-one] | > 900 | > 100 | > 100 | anti-influenza activity [6]: no anti-influenza activity
Cc1cc2c(c(=S)[nH]1)C(=O)O/C2=C\c1ncc[nH]1 [Compound 15p, (Z)-1-((1H-Imidazol-2-yl)methylene)-6-methyl-4-thioxo-4,5-dihydrofuro[3,4-c]pyridin-3(1H)-one] | > 900 | > 100 | > 100 | anti-influenza activity [6]: no anti-influenza activity
O=C1O/C(=C\c2cccs2)c2cc(-c3ccccc3)[nH]c(=S)c21 [Compound 15r, (Z)-6-Phenyl-1-(thiophen-2-ylmethylene)-4-thioxo-4,5-dihydrofuro[3,4-c]pyridin-3(1H)-one] | > 900 | 28.9 ± 12.6 | 15.1 ± 3.8 | 
Cc1cc2c(c(=S)[nH]1)C(=O)O/C2=C\c1sccc1C [Compound 15s, (Z)-6-Methyl-1-((3-methylthiophen-2-yl)methylene)-4-thioxo-4,5-dihydrofuro[3,4-c]pyridin-3(1H)-one] | > 900 | 17.6 | 12.7 | S.I. (selectivity index, CC50/EC50), A/Puerto Rico/8/34 [1]: 17.6 ± 11.0 (>51.1); S.I. (selectivity index, CC50/EC50), B/Lee/40 (B/Lee/40): 14.0 ± 7.4 (>64.3); S.I. (selectivity index, CC50/EC50), A/Hong Kong/8/68 (A/Hong Kong/8/68 (H3N2)): 12.7 ± 8.2 (>70.9)
Cc1cc2c(c(=S)[nH]1)C(=O)O/C2=C\c1ccc(C)s1 [Compound 15t, (Z)-6-Methyl-1-((5-methylthiophen-2-yl)methylene)-4-thioxo-4,5-dihydrofuro[3,4-c]pyridin-3(1H)-one] | > 900 | 8 | 12.2 | S.I. (selectivity index, CC50/EC50), A/Puerto Rico/8/34 [1]: 8.0 ± 3.6 (>112.5); S.I. (selectivity index, CC50/EC50), B/Lee/40 (B/Lee/40): 9.6 ± 3.5 (>93.8); inhibitory effect on cell lysis induced by perforin [2]: active; S.I. (selectivity index, CC50/EC50), A/Hong Kong/8/68 (A/Hong Kong/8/68 (H3N2)): 12.2 ± 2.9 (>73.8)
CCc1ccc(/C=C2\OC(=O)c3c2cc(C)[nH]c3=S)s1 [Compound 15u, (Z)-1-((5-Ethylthiophen-2-yl)methylene)-6-methyl-4-thioxo-4,5-dihydrofuro[3,4-c]pyridin-3(1H)-one] | > 900 | 31.7 ± 21.7 | 32.6 ± 10.2 | 
Cc1cc2c(c(=S)[nH]1)C(=O)O/C2=C\c1cc(Br)cs1 [Compound 15v, (Z)-1-((4-Bromothiophen-2-yl)methylene)-6-methyl-4-thioxo-4,5-dihydrofuro[3,4-c]pyridin-3(1H)-one] | > 900 | 63.7 ± 36 | 47.1 ± 18.7 | 
Cc1cc2c(c(=S)[nH]1)C(=O)O/C2=C\c1ccc(Br)s1 [Compound 15w, (Z)-1-((5-Bromothiophen-2-yl)methylene)-6-methyl-4-thioxo-4,5-dihydrofuro[3,4-c]pyridin-3(1H)-one] | > 900 | > 100 | > 100 | 
Cc1ccsc1/C=C1\OC(=O)c2c1cc(C)n(C)c2=S [Compound 15x, (Z)-5,6-Dimethyl-1-((3-methylthiophen-2-yl)methylene)-4-thioxo-4,5-dihydrofuro[3,4-c]pyridin-3(1H)-one] | > 900 | 12.1 | 11.7 | S.I. (selectivity index, CC50/EC50), A/Puerto Rico/8/34 [1]: 12.1 ± 9.5 (>74.4); S.I. (selectivity index, CC50/EC50), B/Lee/40 (B/Lee/40): 8.0 ± 3.6 (>112.5); S.I. (selectivity index, CC50/EC50), A/Hong Kong/8/68 (A/Hong Kong/8/68 (H3N2)): 11.7 ± 2.7 (>76.9)
NC(=O)c1ncn([C@@H]2O[C@H](CO)[C@@H](O)[C@H]2O)n1 [Ribavirin, ribavirin, reference compound] |  | 18.8 ± 4.3 | 20.2 ± 2.4 | 
